Measured values published in patent US20020137929A1, “1 - (3-heterocyclylphenyl) isothiourea, -isourea, -guanidine and -amidine herbicidal agents” (Intellectual Property Department, BASF Aktiengesellschaft, priority 1998, published 2002).

Experiments:
[1] = system: GLXMA (Soybean); experiment: Postemergence herbicidal evaluation; type: in vivo, Glycine max
Method: In the tests, seedling plants are grown in jiffy flats for about two weeks. The test compounds are dispersed in 50/50 acetone/water mixtures containing 0.5% TWEEN®20, a polyoxyethylene sorbitan monolaurate surfactant of Atlas Chemical Industries, in sufficient quantities to provide the equivalent of about 0.0156 kg to 0.500 kg per hectare of active compound when applied to the plants through a spray nozzle operating at 40 psi for a predetermined time. After spraying, the plants are placed on greenhouse benches and are cared for in accordance with conventional greenhouse procedures. From four to five weeks after treatment, the seedling plants are examined and rated according to the rating system set forth below. Where more than one test is involved for a given compound, the data are averaged.
Plant species employed in these evaluations are reported by header abbreviation, common name and scientific name.
(§1) Results of herbicide evaluation are expressed on a rating scale (0-9). The scale is based upon a visual observation of plant stand, vigor, malformation, size, chlorosis and overall plant appearance as compared with a control.

[2] = system: GLXMA (Soybean); experiment: Preemergence herbicidal evaluation; type: in vivo, Glycine max; settings: rated 4-5 weeks after treatment
From the text: as §1
The preemergence herbicidal activity of the test compounds of the present invention is exemplified by the following tests in which the seeds of a variety of monocotyledonous and dicotyledonous plants are separately mixed with potting soil and planted on top of approximately one inch of soil in separate pint cups. After planting, the cups are sprayed with the selected aqueous acetone solution containing test compound in sufficient quantity to provide the equivalent of about 0.0156 to 0.500 kg per hectare of test compound per cup. The treated cups are then placed on greenhouse benches, watered and cared for in accordance with conventional greenhouse procedures. From four to five weeks after treatment, the tests are terminated and each cup is examined and rated according to the rating system provided in Example 37.
The compounds evaluated are reported by compound number given in Example 37.

SMILES | GLXMA herbicidal rating ([1]; rate 0.0157 kg/ha) | GLXMA herbicidal rating ([1]; rate 0.0313 kg/ha) | GLXMA herbicidal rating ([1]; rate 0.0625 kg/ha) | GLXMA herbicidal rating ([1]; rate 0.1250 kg/ha) | GLXMA herbicidal rating ([1]; rate 0.2500 kg/ha) | GLXMA herbicidal rating ([1]; rate 0.5000 kg/ha) | GLXMA preemergence herbicidal rating ([2]; rate 0.1250 kg/ha) | GLXMA preemergence herbicidal rating ([2]; rate 0.2500 kg/ha) | GLXMA preemergence herbicidal rating ([2]; rate 0.5000 kg/ha) | GLXMA preemergence herbicidal rating ([2]; rate 0.0156 kg/ha) | GLXMA preemergence herbicidal rating ([2]; rate 0.0313 kg/ha) | GLXMA preemergence herbicidal rating ([2]; rate 0.0625 kg/ha)
CCC1SC(=Nc2cc(N3C(=O)C4=C(CCCC4)C3=O)c(F)cc2Cl)N(C)C1=O (stereo not drawn) [Compound 6, N-{4-chloro-5-[(5-ethyl-3-methyl-4-oxo-2-thiazolidinylidene)amino]-2-fluorophenyl}-1-cyclohexene-1,2-dicarboximide] | 3.0 | 3.0 | 3.0 | 3.5 | 4.0 | 4.0 | 0.0 | 0.0 | 0.0 | – | – | –
CCOC(=O)CN1C(=O)C(CC(=O)O)S/C1=N/c1cc(-n2c(=O)cc(C(F)(F)F)n(C)c2=O)c(F)cc1Cl (stereo not drawn) [Compound 16] | – | – | – | – | – | – | 2.0 | 3.5 | 7.0 | 0.0 | 0.0 | 2.0
